# Measured values from US11446233B2, “Serums for reducing lipid peroxidation” (L'OREAL, priority 2020, dated 2022).
# Experiment: Ingredient metering: LC-UV concentration of active ingredients on storage
# Type: physicochemical
# Conditions: for Concentration of ingredient in inventive formula, T1M 45° C / Concentration of ingredient in inventive formula, T1M TA: in Inventive Ex. 1, 1 month; for Concentration of ingredient in inventive formula, T1M TA / Concentration of ingredient in inventive formula, T2M TA: temperature ambient; for Concentration of ingredient in inventive formula, T2M 45° C / Concentration of ingredient in inventive formula, T2M TA: in Inventive Ex. 1, 2 months; for Concentration of ingredient in inventive formula, T0 M: in Inventive Ex. 1, month 0
# Description: The levels of Ascorbic Acid, Ferulic Acid, Salicylic Acid, and Silybum marianum Extract (Active Silybin) were metered.
Structure (SMILES),"Concentration of ingredient in inventive formula, T1M 45° C [%]","Concentration of ingredient in inventive formula, T1M TA [%]","Concentration of ingredient in inventive formula, T2M 45° C [%]","Concentration of ingredient in inventive formula, T2M TA [%]","Concentration of ingredient in inventive formula, T0 M [%]"
COc1cc(/C=C/C(=O)O)ccc1O [Ferulic Acid],0.43,0.48,0.39,0.50,0.46
O=C(O)c1ccccc1O [Salicylic Acid],0.49,0.50,0.47,0.49,–
O=C1O[C@H]([C@@H](O)CO)C(O)=C1O [Ascorbic Acid],14.72,15.04,14.00,15.60,15.2
